Consider one molecule from patent US20250304576A1 (Cancer Research Technology Limited, priority 2022, published 2025).

One assay addresses T1, Recombinant IKKα (Homo sapiens, UniProt O15111).
T1 construct: purchased Millipore, Dundee, UK
T1 sequence (O15111 1-745): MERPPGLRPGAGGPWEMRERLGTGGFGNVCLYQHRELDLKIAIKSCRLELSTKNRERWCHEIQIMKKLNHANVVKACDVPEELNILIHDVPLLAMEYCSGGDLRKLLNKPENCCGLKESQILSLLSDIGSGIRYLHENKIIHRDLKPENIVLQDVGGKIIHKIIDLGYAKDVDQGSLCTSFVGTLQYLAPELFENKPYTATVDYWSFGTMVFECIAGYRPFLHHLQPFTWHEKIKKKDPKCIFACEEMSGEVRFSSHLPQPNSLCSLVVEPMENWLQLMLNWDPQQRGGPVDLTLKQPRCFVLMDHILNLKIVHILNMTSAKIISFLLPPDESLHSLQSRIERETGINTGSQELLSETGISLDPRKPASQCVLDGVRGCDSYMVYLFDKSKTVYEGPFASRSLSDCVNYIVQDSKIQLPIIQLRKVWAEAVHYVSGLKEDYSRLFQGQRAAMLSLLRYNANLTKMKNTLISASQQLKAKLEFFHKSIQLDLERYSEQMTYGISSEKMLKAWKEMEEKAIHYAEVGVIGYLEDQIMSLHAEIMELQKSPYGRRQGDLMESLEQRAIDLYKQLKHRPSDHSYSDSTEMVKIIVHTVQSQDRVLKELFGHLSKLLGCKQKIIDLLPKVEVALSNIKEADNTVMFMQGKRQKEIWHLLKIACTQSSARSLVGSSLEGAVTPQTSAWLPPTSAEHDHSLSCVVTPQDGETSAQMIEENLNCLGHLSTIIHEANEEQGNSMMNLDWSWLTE
The assay is described as follows: DELFIA IKKα kinase assay (apparent Ki, Cheng-Prusoff). The class given is biochemical. The following applies: DELFIA assay (first line of an example). The method in brief:
(§1)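 DELFIA time-resolved fluorescence (ex 340/em 615 nm) quantified phosphorylation of a biotinylated IκB-α Ser32 peptide (0.375 μM) by 37 nM recombinant IKKα or IKKβ. Reactions used 40 μM ATP, Tris pH 7.5 buffer with MgCl2, DTT and BSA, 60 min at 30° C. Cheng-Prusoff equation gave apparent Ki.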

The target of the next assay is T2, Recombinant IKKβ (Homo sapiens, UniProt O14920).
T2 construct: purchased Millipore, Dundee, UK
T2 sequence (O14920 1-756): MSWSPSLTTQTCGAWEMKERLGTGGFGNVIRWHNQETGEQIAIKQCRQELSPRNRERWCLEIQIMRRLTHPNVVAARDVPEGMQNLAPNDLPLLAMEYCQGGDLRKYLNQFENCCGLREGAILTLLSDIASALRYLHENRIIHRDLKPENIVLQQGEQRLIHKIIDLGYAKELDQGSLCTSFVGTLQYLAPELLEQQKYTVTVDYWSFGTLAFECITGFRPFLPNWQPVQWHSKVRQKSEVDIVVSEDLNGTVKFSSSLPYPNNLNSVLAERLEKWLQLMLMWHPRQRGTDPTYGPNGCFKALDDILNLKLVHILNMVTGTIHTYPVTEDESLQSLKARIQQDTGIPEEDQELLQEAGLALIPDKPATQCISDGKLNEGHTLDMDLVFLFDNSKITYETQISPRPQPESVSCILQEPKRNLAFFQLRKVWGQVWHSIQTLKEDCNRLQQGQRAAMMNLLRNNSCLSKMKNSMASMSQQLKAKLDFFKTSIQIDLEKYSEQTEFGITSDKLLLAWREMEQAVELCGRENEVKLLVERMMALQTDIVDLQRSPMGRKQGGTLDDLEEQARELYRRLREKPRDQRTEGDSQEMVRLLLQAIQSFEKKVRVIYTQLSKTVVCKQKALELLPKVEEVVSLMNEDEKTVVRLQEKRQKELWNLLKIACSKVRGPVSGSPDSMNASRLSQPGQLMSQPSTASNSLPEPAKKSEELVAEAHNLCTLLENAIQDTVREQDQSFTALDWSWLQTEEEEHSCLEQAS
The assay is described as follows: DELFIA IKKβ kinase assay (apparent Ki, Cheng-Prusoff). It is filed as biochemical. The following applies: DELFIA assay (first line of an example). The method in brief:
as §1

Turning to `CC(C)(C)C#Cc1cc(-c2cc(N)ncc2C#N)cc2c(N)n[nH]c12` [Example 336, 6-Amino-4-(3-amino-7-(3,3-dimethylbut-1-yn-1-yl)-1H-indazol-5-yl)nicotinonitrile], the Ki on Recombinant IKKα and at Recombinant IKKβ was over 10 µM throughout.
